Experimental data published in patent US10568893B2, “Methods for treating inflammation, autoimmune disorders and pain” (BRIGHAM YOUNG UNIVERSITY, priority 2013, dated 2020).

Assays:
[1] = tested on: IL1A (Interleukin-1 alpha); test: Inflammation gene regulation, mRNA q-PCR panel; assay type: cell-based; conditions: mRNA by q-PCR, 8 hours treatment, primary human MSC (dendritic cells also described); CSA-13 at 5.0 μM
Description: (§1) Cells were purchased from Lonza.com and used fresh for each test using recommended media and culture conditions. After treatment, mRNA was isolated using Qiagen RNeasy Mini Kit®, and quantified using a NanoDrop 2000® by UV at 260 nm and 260/280 ratio for purity. cDNA was made using a First Strand Kit® from SABiosciences and processed for real time PCR using a kit from the same company for selected analysis of wound healing pathways. Results from q-PCR were uploaded to the SABiosciences site and to Ingenuity.com web site for analysis and pathway mapping. On day 1, primary human MSC cells were plated at 200,000 cells/well using 6-well plates with 3 ml of recommended media—hMSC Basal Medium+BulletKit (50 ml Growth Supplement, 10 ml L-Glutamine and 0.5 ml Gentamicin Sulfate Amphotercin-B) for 24 hours. Only early passages of cells were used, and never from frozen stock. On day 2, cells were treated with compounds dissolved in DMSO diluted 1:1000 or more to avoid effects of the solvent. […] Treatment lasted 8 hours, and was followed by RNA isolation using QIAGEN RNeasy Mini Kit® (74104). RNA was measured at 260/280 nm using a NanoDrop 2000® and normalized to 2.4 ng per well, cDNA preparation was done using QIAGEN First Strand kit 330401. q-PCR was run as absolute quantification and threshold set at 0.1 units. Dendritic cells were plated at 500,000 cells/well using 24-well plate with 500 μl of Lonza LGM-3 Complete Growth Medium with and without compound. Treatment lasted 8 hours, and was followed by RNA isolation using QIAGEN RNeasy Mini Kit® (74104). RNA was measured at 260/280 nm using NanoDrop2000® and normalized to 2.4 ng per well, cDNA preparation was done using QIAGEN First Strand kit 330401. PCR was run as absolute quantification and threshold set at 0.1 units.

[2] = tested on: IL1B (Interleukin-1 beta); test: Inflammation gene regulation, mRNA q-PCR panel; assay type: cell-based; conditions: mRNA by q-PCR, 8 hours treatment, primary human MSC (dendritic cells also described); CSA-13 at 5.0 μM
Description: as §1

[3] = tested on: IRAK2 (Interleukin-1 receptor-associated kinase 2); test: Inflammation gene regulation, mRNA q-PCR panel; assay type: cell-based; conditions: mRNA by q-PCR, 8 hours treatment, primary human MSC (dendritic cells also described); CSA-13 at 5.0 μM
Description: as §1

[4] = tested on: NFKB1 (Nuclear factor of kappa light polypeptide gene enhancer in B-cells 1); test: Inflammation gene regulation, mRNA q-PCR panel; assay type: cell-based; conditions: mRNA by q-PCR, 8 hours treatment, primary human MSC (dendritic cells also described); CSA-13 at 5.0 μM
Description: as §1

[5] = tested on: NFKB2 (Nuclear factor of kappa light polypeptide gene enhancer in B-cells 2); test: Inflammation gene regulation, mRNA q-PCR panel; assay type: cell-based; conditions: mRNA by q-PCR, 8 hours treatment, primary human MSC (dendritic cells also described); CSA-13 at 5.0 μM
Description: as §1

[6] = tested on: NFKBIA (Nuclear factor of kappa light polypeptide gene enhancer in B-cells inhibitor, alpha); test: Inflammation gene regulation, mRNA q-PCR panel; assay type: cell-based; conditions: mRNA by q-PCR, 8 hours treatment, primary human MSC (dendritic cells also described); CSA-13 at 5.0 μM
Description: as §1

[7] = tested on: TLR2 (Toll-like receptor 2); test: Inflammation gene regulation, mRNA q-PCR panel; assay type: cell-based; conditions: mRNA by q-PCR, 8 hours treatment, primary human MSC (dendritic cells also described); CSA-13 at 5.0 μM
Description: as §1

[8] = tested on: TLR4 (Toll-like receptor 4); test: Inflammation gene regulation, mRNA q-PCR panel; assay type: cell-based; conditions: mRNA by q-PCR, 8 hours treatment, primary human MSC (dendritic cells also described); CSA-13 at 5.0 μM
Description: as §1

[9] = tested on: TLR6 (Toll-like receptor 6); test: Inflammation gene regulation, mRNA q-PCR panel; assay type: cell-based; conditions: mRNA by q-PCR, 8 hours treatment, primary human MSC (dendritic cells also described); CSA-13 at 5.0 μM
Description: as §1

[10] = tested on: TLR8 (Toll-like receptor 8); test: Inflammation gene regulation, mRNA q-PCR panel; assay type: cell-based; conditions: mRNA by q-PCR, 8 hours treatment, primary human MSC (dendritic cells also described); CSA-13 at 5.0 μM
Description: as §1

[11] = tested on: TLR9 (Toll-like receptor 9); test: Inflammation gene regulation, mRNA q-PCR panel; assay type: cell-based; conditions: mRNA by q-PCR, 8 hours treatment, primary human MSC (dendritic cells also described); CSA-13 at 5.0 μM
Description: as §1

[12] = tested on: TNF (Tumor necrosis factor); test: Inflammation gene regulation, mRNA q-PCR panel; assay type: cell-based; conditions: mRNA by q-PCR, 8 hours treatment, primary human MSC (dendritic cells also described); CSA-13 at 5.0 μM
Description: as §1

[13] = tested on: TNFRSF1A (Tmor necrosis factor receptor superfamily member 1A); test: Inflammation gene regulation, mRNA q-PCR panel; assay type: cell-based; conditions: mRNA by q-PCR, 8 hours treatment, primary human MSC (dendritic cells also described); CSA-13 at 5.0 μM
Description: as §1

alveolar bone loss = conditions: topical application; cited from earlier work

SMILES	Fold Regulation IL1A [1]	Fold Regulation IL1B [2]	Fold Regulation IRAK2 [3]	Fold Regulation NFKB1 [4]	Fold Regulation NFKB2 [5]	Fold Regulation NFKBIA [6]	Fold Regulation TLR2 [7]	Fold Regulation TLR4 [8]	Fold Regulation TLR6 [9]	Fold Regulation TLR8 [10]	Fold Regulation TLR9 [11]	Fold Regulation TNF [12]	Fold Regulation TNFRSF1A [13]	Alveolar bone loss (alveolar bone loss)
CCCCCCCCOC(=O)CC[C@@H](C)[C@H]1CC[C@H]2[C@@H]3[C@H](OC(=O)CCN)C[C@@H]4C[C@H](OC(=O)CCN)CC[C@]4(C)[C@H]3C[C@H](OC(=O)CCN)[C@]12C [CSA-44]	−6.0325	−28.5329	−31.8021	−3.2891	−2.2766	−52.206	−15.7179	−2.977	−2.392	−8.2256	−1.8905	−25.9588	−2.2461	–
CCCCCN(CCCCC)CCC[C@@H](C)[C@H]1CC[C@H]2[C@@H]3[C@H](OCCCN)C[C@@H]4C[C@H](OCCCN)CC[C@]4(C)[C@H]3C[C@H](OCCCN)[C@]12C [CSA-90]	−6.96	−3.6734	−52.0069	−4.718	−2.5474	−26.0352	−13.6933	−3.4278	−2.0885	−4.1972	−1.8613	−4.8514	−7.3196	–
CN/C(=N/CCSCc1nc[nH]c1C)NC#N [cimetidine]	–	–	–	–	–	–	–	–	–	–	–	–	–	reduce alveolar bone loss
